Laboratory results taken from ChEMBL document CHEMBL1142340 (Bioorg Med Chem Lett, 2008).
The source made the active and inactive calls. The calls are words filed in the database; no cut-off is given here.

How the values were obtained:
A549 [1] = experiment: Antiproliferative activity against human A549 cells after 3 days; assay type: functional, cell-based; conditions: A549, 72 h
Histone deacetylase = experiment: Inhibition of human HDAC in HeLa nuclear extracts
[2] = Dissociation constant, pKa of the compound; assay type: physicochemical
A549 [3] = experiment: Antiproliferative activity against human A549 cells at 1 mM after 3 days; assay type: functional; conditions: A549, 72 h
[4] = molecular target: Histone deacetylase (Homo sapiens) (UniProt Q13547+O15379+Q9UBN7+Q92769+Q9UQL6+Q8WUI4+Q9BY41+Q96DB2+P56524+Q9UKV0+Q969S8); experiment: Inhibition of human HDAC in A549 cells assessed as increase in histone-H4 acetylation at 150 uM after 24 hrs by Western blot; assay type: cell-based

SMILES	IC50 (A549 [1]) [µM]	IC50 (Histone deacetylase) [µM]	pKa [2]	inhibition at 1000 µM (A549 [3]) [%]	Activity [4]
CS(=O)(=O)SCCO	161	102	–	–	–
CCCC(CCC)C(=O)Oc1ccc(-c2cc(=S)ss2)cc1	89	56.4	–	–	–
Oc1ccc(-c2cc(=S)ss2)cc1	66	0.45	7.86	–	–
CCCC(CCC)C(=O)OCCSS(C)(=O)=O	154	9.6	–	–	–
Br.CS(=O)(=O)SCCN	154	198	–	–	–
CCCC(CCC)C(=O)O [VALPROIC ACID]	> 1000	–	–	24	Active
CCCC(CCC)C(=O)NCCSS(C)(=O)=O	–	17.5	–	–	–
